Laboratory results reported in patent US20070287727A1, “Anti-Nicotine Treatment” (priority 2006, published 2007).

Key:
monkeys = conditions: cited from earlier work
[1] = tested on: superior cervical ganglia; conditions: cited from earlier work
heavy smokers = assay: Treatment of heavy smokers using anticholinergic therapy; assay type: in vivo, human; conditions: heavy smokers unable to visit for a booster
Source text: Some individuals were characterized as heavy smokers and smoked 20 or more cigarettes per day. […] All of these patients received normal supportive treatment by sedative drugs and counseling on coping with and adjusting to addiction.
Booster injections were offered to all patients.

[2] = intramuscular or intravenous injection; cited from earlier work

In the case of `CN1[C@@H]2C[C@@H](OC(=O)[C@H](CO)c3ccccc3)C[C@H]1[C@@H]1O[C@@H]12` [scopolamine], the “effect on smoking (puffing pattern)” value (monkeys) is listed as “decreased smoking”.

For `C[C@H](N)Cc1ccccc1` [d-amphetamine], the “effect on smoking (puffing pattern)” value (monkeys) is listed as “decreased smoking”.

In the case of `CN1CCCC1c1cccnc1` (stereo not shown) [nicotine], the acetylcholinesterase ([1]; after withdrawal of nicotine) is listed as “about 117 % of controls” and the acetylcholine increase ([1]; chronic nicotine treatment) is listed as “about 35%”.

For `CN1[C@@H]2CC[C@H]1C[C@@H](OC(c1ccccc1)c1ccccc1)C2` [benztropine, 8-azabicyclo [3.2.1]octane, 3-(diphenylmethoxy)-, endo, methanesulfonate], the patient-reported well-being (heavy smokers; a few weeks after treatment) is given as “feeling well”, the “relapse to smoke again” value (heavy smokers; given during the 5 days after the first injection) is given as “no immediate or short term relapse” and the onset of action [2] is given as “within minutes”.
